Test results from PMC5095920 (Biochemical Journal, 2016).

Biological target: T1, HemQ (Staphylococcus aureus, UniProt Q2YS77)
T1 sequence (Q2YS77 1-250): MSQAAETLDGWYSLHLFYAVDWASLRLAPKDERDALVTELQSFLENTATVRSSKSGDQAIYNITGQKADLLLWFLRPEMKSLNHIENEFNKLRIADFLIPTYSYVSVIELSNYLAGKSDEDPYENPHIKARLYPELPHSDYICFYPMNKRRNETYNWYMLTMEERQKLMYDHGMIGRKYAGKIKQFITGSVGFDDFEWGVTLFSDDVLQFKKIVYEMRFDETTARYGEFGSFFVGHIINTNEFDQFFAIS
Experiment: co-purification on affinity column, absorption spectroscopy
Format: binding
Settings: porphyrin added before affinity chromatography, pH 8.0

Row | Compound | co-purification on affinity column, absorption spectroscopy
1 | CC1=C(CCC(=O)O)c2cc3nc(cc4[nH]c(cc5[nH]c(cc1n2)c(C)c5CCC(=O)O)c(CCC(=O)O)c4C)C(CCC(=O)O)=C3C [coproporphyrin III] | HemQ that was loaded with bound haem, protoporphyrin IX, and coproporphyrin III
2 | C=CC1=C(C)c2cc3[nH]c(cc4nc(cc5[nH]c(cc1n2)c(C)c5CCC(=O)O)C(CCC(=O)O)=C4C)c(C)c3C=C [protoporphyrin IX] | HemQ that was loaded with bound haem, protoporphyrin IX, and coproporphyrin III
